Assays:
Conditions in all cases: Compound concentration 10 µM
[1] = target: D(1B) dopamine receptor (Homo sapiens) (UniProt P21918)
Description: PDSP Primary Binding target: DRD5 - Compounds are tested at 10 uM concentration, plate are incubated at room temperature in the dark for 90 minutes. Reaction are stopped by vacuum filtration onto 0.3% polyethyleneimine soaked filter mats using Filtermate harvester. Scintilation cocktail is then melted onto microwave-dried filters on a hot plate and the radio activity is counted in Microbia counter.

[2] = target: Delta-type opioid receptor (Homo sapiens) (UniProt P41143)
Description: PDSP Primary Binding target: OPRD1 - Compounds are tested at 10 uM concentration, plate are incubated at room temperature in the dark for 90 minutes. Reaction are stopped by vacuum filtration onto 0.3% polyethyleneimine soaked filter mats using Filtermate harvester. Scintilation cocktail is then melted onto microwave-dried filters on a hot plate and the radio activity is counted in Microbia counter.

[3] = target: Mu-type opioid receptor (Homo sapiens) (UniProt P35372)
Description: PDSP Primary Binding target: OPRM1 - Compounds are tested at 10 uM concentration, plate are incubated at room temperature in the dark for 90 minutes. Reaction are stopped by vacuum filtration onto 0.3% polyethyleneimine soaked filter mats using Filtermate harvester. Scintilation cocktail is then melted onto microwave-dried filters on a hot plate and the radio activity is counted in Microbia counter.

[4] = target: Sigma intracellular receptor 2 (Homo sapiens) (UniProt Q5BJF2)
Description: PDSP Primary Binding target: TMEM97 - Compounds are tested at 10 uM concentration, plate are incubated at room temperature in the dark for 90 minutes. Reaction are stopped by vacuum filtration onto 0.3% polyethyleneimine soaked filter mats using Filtermate harvester. Scintilation cocktail is then melted onto microwave-dried filters on a hot plate and the radio activity is counted in Microbia counter.

[5] = target: 5-hydroxytryptamine receptor 2A (Homo sapiens) (UniProt P28223)
Description: PDSP Primary Binding target: HTR2A - Compounds are tested at 10 uM concentration, plate are incubated at room temperature in the dark for 90 minutes. Reaction are stopped by vacuum filtration onto 0.3% polyethyleneimine soaked filter mats using Filtermate harvester. Scintilation cocktail is then melted onto microwave-dried filters on a hot plate and the radio activity is counted in Microbia counter.

[6] = target: T1, Alpha-2B adrenergic receptor (Homo sapiens) (UniProt P18089)
T1 sequence (whole entry): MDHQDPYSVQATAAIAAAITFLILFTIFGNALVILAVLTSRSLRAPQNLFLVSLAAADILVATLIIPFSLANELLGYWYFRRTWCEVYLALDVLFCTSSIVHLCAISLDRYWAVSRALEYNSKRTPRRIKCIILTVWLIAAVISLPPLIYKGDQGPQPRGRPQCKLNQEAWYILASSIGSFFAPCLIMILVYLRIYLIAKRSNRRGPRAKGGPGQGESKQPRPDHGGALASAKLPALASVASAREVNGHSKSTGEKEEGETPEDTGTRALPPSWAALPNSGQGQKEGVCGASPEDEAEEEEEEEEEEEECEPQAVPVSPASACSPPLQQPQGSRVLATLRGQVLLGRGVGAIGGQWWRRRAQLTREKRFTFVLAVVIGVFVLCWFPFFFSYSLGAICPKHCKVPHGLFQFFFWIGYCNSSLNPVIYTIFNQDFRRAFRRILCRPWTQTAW
Description: PDSP Primary Binding target: ADRA2B - Compounds are tested at 10 uM concentration, plate are incubated at room temperature in the dark for 90 minutes. Reaction are stopped by vacuum filtration onto 0.3% polyethyleneimine soaked filter mats using Filtermate harvester. Scintilation cocktail is then melted onto microwave-dried filters on a hot plate and the radio activity is counted in Microbia counter.

[7] = target: T2, Alpha-1A adrenergic receptor (Homo sapiens) (UniProt P35348)
T2 sequence (whole entry): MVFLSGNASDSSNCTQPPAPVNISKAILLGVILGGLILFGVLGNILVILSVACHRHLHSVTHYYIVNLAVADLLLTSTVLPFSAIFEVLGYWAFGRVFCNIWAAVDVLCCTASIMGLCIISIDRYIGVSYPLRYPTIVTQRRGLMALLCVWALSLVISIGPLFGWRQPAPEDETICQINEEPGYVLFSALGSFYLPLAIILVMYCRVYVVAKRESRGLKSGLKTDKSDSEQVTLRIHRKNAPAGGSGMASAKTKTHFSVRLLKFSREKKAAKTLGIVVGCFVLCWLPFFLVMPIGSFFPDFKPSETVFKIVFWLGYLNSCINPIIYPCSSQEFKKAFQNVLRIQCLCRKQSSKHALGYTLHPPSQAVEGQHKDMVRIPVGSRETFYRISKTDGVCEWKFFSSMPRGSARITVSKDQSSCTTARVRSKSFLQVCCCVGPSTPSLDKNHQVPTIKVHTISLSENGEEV
Description: PDSP Primary Binding target: ADRA1A - Compounds are tested at 10 uM concentration, plate are incubated at room temperature in the dark for 90 minutes. Reaction are stopped by vacuum filtration onto 0.3% polyethyleneimine soaked filter mats using Filtermate harvester. Scintilation cocktail is then melted onto microwave-dried filters on a hot plate and the radio activity is counted in Microbia counter.

[8] = target: T3, Alpha-1D adrenergic receptor (Homo sapiens) (UniProt P25100)
T3 sequence (whole entry): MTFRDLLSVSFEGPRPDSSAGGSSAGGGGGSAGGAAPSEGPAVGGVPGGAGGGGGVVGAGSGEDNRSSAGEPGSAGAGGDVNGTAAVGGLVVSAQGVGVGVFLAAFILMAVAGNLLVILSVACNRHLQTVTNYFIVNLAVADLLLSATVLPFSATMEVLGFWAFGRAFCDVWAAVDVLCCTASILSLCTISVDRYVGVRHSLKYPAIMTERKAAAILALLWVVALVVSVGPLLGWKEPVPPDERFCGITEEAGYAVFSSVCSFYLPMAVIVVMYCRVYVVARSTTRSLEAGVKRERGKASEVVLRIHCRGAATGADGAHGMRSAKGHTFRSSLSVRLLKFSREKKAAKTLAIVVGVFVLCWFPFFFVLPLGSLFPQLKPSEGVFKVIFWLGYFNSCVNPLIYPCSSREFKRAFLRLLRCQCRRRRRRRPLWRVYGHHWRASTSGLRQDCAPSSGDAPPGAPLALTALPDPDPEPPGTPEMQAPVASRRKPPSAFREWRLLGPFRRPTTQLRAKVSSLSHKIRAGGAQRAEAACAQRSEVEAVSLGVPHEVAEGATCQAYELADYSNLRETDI
Description: PDSP Primary Binding target: ADRA1D - Compounds are tested at 10 uM concentration, plate are incubated at room temperature in the dark for 90 minutes. Reaction are stopped by vacuum filtration onto 0.3% polyethyleneimine soaked filter mats using Filtermate harvester. Scintilation cocktail is then melted onto microwave-dried filters on a hot plate and the radio activity is counted in Microbia counter.

[9] = target: Beta-2 adrenergic receptor (Homo sapiens) (UniProt P07550)
Sequence of Beta-2 adrenergic receptor (Homo sapiens) (P07550 whole entry, looked up): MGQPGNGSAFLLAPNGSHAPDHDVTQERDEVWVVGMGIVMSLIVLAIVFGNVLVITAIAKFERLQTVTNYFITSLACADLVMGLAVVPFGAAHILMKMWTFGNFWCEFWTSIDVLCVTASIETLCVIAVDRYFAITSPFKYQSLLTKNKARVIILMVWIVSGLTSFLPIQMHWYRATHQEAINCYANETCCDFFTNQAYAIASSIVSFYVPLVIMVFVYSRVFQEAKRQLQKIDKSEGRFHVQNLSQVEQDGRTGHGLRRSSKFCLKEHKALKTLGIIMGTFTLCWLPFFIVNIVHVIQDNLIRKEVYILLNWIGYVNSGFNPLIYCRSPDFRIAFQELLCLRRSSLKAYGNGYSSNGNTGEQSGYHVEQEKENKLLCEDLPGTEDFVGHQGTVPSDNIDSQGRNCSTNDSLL
Description: PDSP Primary Binding target: ADRB2 - Compounds are tested at 10 uM concentration, plate are incubated at room temperature in the dark for 90 minutes. Reaction are stopped by vacuum filtration onto 0.3% polyethyleneimine soaked filter mats using Filtermate harvester. Scintilation cocktail is then melted onto microwave-dried filters on a hot plate and the radio activity is counted in Microbia counter.

[10] = target: 5-hydroxytryptamine receptor 1E (Homo sapiens) (UniProt P28566)
Sequence of 5-hydroxytryptamine receptor 1E (Homo sapiens) (P28566 whole entry): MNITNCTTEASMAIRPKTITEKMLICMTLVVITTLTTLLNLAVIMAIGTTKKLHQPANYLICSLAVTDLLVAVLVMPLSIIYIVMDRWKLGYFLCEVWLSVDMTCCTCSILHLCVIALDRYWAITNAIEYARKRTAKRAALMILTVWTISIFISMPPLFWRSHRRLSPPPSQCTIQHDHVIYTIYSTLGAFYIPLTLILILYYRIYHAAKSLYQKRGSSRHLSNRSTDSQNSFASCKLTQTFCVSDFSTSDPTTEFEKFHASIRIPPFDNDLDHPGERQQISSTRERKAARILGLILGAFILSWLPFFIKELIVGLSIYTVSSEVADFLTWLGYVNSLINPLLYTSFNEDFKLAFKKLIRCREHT
Description: PDSP Primary Binding target: HTR1E - Compounds are tested at 10 uM concentration, plate are incubated at room temperature in the dark for 90 minutes. Reaction are stopped by vacuum filtration onto 0.3% polyethyleneimine soaked filter mats using Filtermate harvester. Scintilation cocktail is then melted onto microwave-dried filters on a hot plate and the radio activity is counted in Microbia counter.

[11] = target: T4, Muscarinic acetylcholine receptor M4 (Homo sapiens) (UniProt P08173)
T4 sequence (whole entry): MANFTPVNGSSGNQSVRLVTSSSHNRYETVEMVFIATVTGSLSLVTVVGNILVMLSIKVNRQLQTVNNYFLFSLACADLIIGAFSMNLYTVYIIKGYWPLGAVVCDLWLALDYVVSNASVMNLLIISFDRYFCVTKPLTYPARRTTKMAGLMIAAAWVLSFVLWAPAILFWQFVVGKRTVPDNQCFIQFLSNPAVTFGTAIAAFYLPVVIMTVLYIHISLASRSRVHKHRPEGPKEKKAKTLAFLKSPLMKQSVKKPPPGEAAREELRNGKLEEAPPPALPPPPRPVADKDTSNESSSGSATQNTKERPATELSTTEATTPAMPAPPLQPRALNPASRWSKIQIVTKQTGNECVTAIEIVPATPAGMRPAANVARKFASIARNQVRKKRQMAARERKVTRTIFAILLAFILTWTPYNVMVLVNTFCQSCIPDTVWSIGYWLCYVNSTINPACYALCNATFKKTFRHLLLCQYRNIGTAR
Description: PDSP Primary Binding target: CHRM4 - Compounds are tested at 10 uM concentration, plate are incubated at room temperature in the dark for 90 minutes. Reaction are stopped by vacuum filtration onto 0.3% polyethyleneimine soaked filter mats using Filtermate harvester. Scintilation cocktail is then melted onto microwave-dried filters on a hot plate and the radio activity is counted in Microbia counter.

[12] = target: Histamine H3 receptor (Homo sapiens) (UniProt Q9Y5N1)
Sequence of Histamine H3 receptor (Homo sapiens) (Q9Y5N1 whole entry): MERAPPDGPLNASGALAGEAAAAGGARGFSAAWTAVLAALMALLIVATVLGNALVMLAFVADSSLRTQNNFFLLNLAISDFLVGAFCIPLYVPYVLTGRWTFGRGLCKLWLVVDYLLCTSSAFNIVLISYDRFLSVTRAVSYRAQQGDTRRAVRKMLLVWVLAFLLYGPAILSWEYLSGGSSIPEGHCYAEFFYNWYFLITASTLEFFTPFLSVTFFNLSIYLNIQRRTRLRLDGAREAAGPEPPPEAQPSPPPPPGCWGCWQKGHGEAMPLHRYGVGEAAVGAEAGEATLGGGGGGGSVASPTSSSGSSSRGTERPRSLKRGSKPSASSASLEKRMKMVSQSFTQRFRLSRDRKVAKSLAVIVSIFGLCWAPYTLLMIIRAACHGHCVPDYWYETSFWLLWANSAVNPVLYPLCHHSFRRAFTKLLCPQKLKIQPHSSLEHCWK
Description: PDSP Primary Binding target: HRH3 - Compounds are tested at 10 uM concentration, plate are incubated at room temperature in the dark for 90 minutes. Reaction are stopped by vacuum filtration onto 0.3% polyethyleneimine soaked filter mats using Filtermate harvester. Scintilation cocktail is then melted onto microwave-dried filters on a hot plate and the radio activity is counted in Microbia counter.

Sequence of Mu-type opioid receptor (Homo sapiens) (P35372 whole entry): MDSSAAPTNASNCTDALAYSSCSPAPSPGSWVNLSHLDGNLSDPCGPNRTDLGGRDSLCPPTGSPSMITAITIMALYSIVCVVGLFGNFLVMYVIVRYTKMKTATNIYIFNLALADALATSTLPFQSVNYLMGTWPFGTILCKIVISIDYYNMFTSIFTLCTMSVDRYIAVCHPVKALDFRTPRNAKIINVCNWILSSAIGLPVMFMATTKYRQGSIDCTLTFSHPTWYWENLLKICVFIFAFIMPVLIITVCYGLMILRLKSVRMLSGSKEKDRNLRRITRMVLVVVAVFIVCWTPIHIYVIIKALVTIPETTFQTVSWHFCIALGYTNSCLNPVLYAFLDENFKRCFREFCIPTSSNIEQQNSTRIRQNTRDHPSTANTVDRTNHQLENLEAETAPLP
Sequence of D(1B) dopamine receptor (Homo sapiens) (P21918 whole entry): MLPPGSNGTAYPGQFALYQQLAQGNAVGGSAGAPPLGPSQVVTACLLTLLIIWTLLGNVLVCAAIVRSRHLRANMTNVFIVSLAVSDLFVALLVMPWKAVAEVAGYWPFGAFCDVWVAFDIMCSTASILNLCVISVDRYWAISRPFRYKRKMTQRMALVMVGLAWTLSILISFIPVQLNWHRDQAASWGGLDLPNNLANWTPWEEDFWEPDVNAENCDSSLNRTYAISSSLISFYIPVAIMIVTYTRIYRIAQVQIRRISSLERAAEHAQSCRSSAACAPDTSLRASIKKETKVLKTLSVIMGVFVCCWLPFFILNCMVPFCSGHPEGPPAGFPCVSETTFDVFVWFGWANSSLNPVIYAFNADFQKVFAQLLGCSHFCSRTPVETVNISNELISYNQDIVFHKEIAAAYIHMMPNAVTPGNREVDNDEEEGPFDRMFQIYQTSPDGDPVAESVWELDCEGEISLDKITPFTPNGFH
Sequence of 5-hydroxytryptamine receptor 2A (Homo sapiens) (P28223 whole entry): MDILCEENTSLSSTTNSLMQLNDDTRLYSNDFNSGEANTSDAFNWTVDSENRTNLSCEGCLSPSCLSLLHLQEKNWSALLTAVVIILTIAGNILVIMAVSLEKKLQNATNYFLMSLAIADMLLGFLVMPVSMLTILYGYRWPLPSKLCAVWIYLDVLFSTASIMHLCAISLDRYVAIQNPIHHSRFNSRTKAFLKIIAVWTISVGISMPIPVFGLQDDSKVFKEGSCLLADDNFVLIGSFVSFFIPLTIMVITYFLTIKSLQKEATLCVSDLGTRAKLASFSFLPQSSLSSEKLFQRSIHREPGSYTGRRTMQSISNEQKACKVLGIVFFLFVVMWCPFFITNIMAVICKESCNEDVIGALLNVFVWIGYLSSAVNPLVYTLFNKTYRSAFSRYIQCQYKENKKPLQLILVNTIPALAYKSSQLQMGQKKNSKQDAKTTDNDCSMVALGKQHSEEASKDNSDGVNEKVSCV
Sequence of Delta-type opioid receptor (Homo sapiens) (P41143 whole entry): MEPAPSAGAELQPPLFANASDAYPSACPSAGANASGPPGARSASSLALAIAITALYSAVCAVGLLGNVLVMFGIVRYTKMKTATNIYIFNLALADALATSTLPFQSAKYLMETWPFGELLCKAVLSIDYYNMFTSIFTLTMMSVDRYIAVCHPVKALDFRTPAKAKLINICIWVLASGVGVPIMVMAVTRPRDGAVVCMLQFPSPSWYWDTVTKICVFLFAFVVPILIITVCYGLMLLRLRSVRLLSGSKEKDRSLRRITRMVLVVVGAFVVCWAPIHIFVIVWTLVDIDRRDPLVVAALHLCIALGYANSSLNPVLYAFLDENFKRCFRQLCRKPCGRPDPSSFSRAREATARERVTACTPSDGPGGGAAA
Sequence of Sigma intracellular receptor 2 (Homo sapiens) (Q5BJF2 whole entry): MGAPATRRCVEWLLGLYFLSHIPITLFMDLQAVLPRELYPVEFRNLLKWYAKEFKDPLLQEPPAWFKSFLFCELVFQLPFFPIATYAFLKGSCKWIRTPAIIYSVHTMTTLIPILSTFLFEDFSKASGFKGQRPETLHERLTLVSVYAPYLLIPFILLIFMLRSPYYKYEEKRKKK

SMILES | inhibition [1] [%] | inhibition [2] [%] | inhibition [3] [%] | inhibition [4] [%] | inhibition [5] [%] | inhibition [6] [%] | inhibition [7] [%] | inhibition [8] [%] | inhibition [9] [%] | inhibition [10] [%] | inhibition [11] [%] | inhibition [12] [%]
CC(C)[C@H](CO)Nc1nc(Nc2cccc(Cl)c2)c2ncn(C(C)C)c2n1 | 8.79 | 5.89 | 9.06 | 63.1 | 41.8 | 28.1 | 1.19 | 13 | -7.15 | – | – | –
CC(C)NCC(O)COc1cccc2[nH]ccc12 (stereo unspecified) | 26.3 | -2.56 | 16.8 | 97.5 | – | – | 32 | 13.6 | 100 | 20 | 4.2 | –
Brc1c(NC2=NCCN2)ccc2nccnc12 | 34.9 | 1.24 | 0.59 | 66.9 | – | – | 34 | 59 | -1.17 | – | – | –
CNC[C@H](O)c1ccc(O)c(O)c1 | -3.14 | 6.63 | -2.25 | 12.3 | – | – | 6.21 | 12.1 | 34.2 | -5.3 | – | –
CCCn1c(=O)c2nc(C34CC5CC(CC3C5)C4)[nH]c2n(CCC)c1=O | 23.9 | 11.3 | 9.1 | 39.6 | -7.63 | 6.22 | – | -8.33 | 4.88 | 14.2 | – | -9.29
COc1ccccc1N1CCN(CCCCNC(=O)c2ccc3ccccc3c2)CC1 | – | -2.88 | 79.8 | 96.4 | -1.42 | 99.5 | 98.8 | 94 | 38.9 | 27.8 | 0.77 | 49.6
Cc1c(F)cccc1NC(=O)Nc1ccc(Cl)c(S(=O)(=O)[C@H]2CCCNC2)c1O | 3.67 | -5.71 | -3.61 | – | -0.14 | 3.18 | 19.2 | – | 5.61 | -6.67 | -3.99 | –
Clc1cccc(Cl)c1NC1=NCCN1 | – | -4.61 | 3.84 | 66.3 | – | – | 69 | 66.8 | -4.25 | 9.4 | -8.53 | –
COc1ccc2[nH]cc(CCNC(C)=O)c2c1 | 6.12 | -3.9 | – | 22.1 | – | – | -4.46 | -5.37 | -1.29 | – | – | -7.94
CN1C[C@H](C(=O)N[C@]2(C)O[C@@]3(O)[C@@H]4CCCN4C(=O)[C@H](Cc4ccccc4)N3C2=O)C[C@@H]2c3cccc4[nH]cc(c34)C[C@H]21 | 78.7 | 14.2 | 58.1 | 93.6 | – | – | 99.4 | 102 | 18.1 | 76.1 | -5.91 | 38.2
COC(=O)[C@H]1[C@H]2C[C@H]3c4[nH]c5ccccc5c4CCN3C[C@H]2CC[C@@H]1O | 11.8 | -0.55 | 28.7 | 22.8 | – | – | 66.2 | 58.7 | -6.47 | 96 | -4.59 | 7.16
CC(C)(C(=O)O)c1ccc(C(O)CCCN2CCC(C(O)(c3ccccc3)c3ccccc3)CC2)cc1 (stereo unspecified) | 18.3 | – | – | 39.2 | – | – | – | -2.43 | -5.98 | -8.04 | -3.2 | -3.95
NCCc1c[nH]c2ccc(C(N)=O)cc12 | – | -3.42 | 28.8 | 63.4 | -8.47 | 24.8 | -9.81 | 14.8 | 4.33 | 65.6 | -6.09 | –
Cc1ccccc1N1CCN(S(=O)(=O)C[C@]23CC[C@H](C[C@@H]2NC(=O)[C@@H](N)CCS(C)(=O)=O)C3(C)C)CC1 | -6.4 | 7.82 | 15.9 | 85 | 1.52 | 11.2 | 19.4 | 4.26 | 13.7 | 19.7 | – | -8.2
CN1CCC(=C2c3ccccc3CC(=O)c3sccc32)CC1 | 55.2 | 14.2 | 15.9 | 91.3 | – | – | 9.71 | 16.3 | 25.3 | 27.9 | 64.6 | -7.74
CCc1nn(CCCN2CCN(c3cccc(Cl)c3)CC2)c(=O)n1CCOc1ccccc1 | 6.13 | 13 | 32.2 | 91.7 | 82 | 103 | 96 | 83.9 | -0.82 | -4.17 | – | -2.65
Cc1cc(C)c(N)c(C#Cc2cccc(F)c2)n1 | 0.26 | -1.56 | 2.84 | 15.9 | 5.87 | 12.9 | 10.2 | 28.9 | 19.8 | 20.1 | – | -8.58
CCCNS(=O)(=O)Nc1ncnc(OCCOc2ncc(Br)cn2)c1-c1ccc(Br)cc1 | -1.25 | 23.6 | 30.6 | 30 | 42.8 | – | – | 0.01 | – | 42.3 | 6.06 | 1.52
N[C@H](C(=O)O)c1ccc(C(=O)O)c(C(=O)O)c1 | – | 13.1 | 29.8 | – | 5.29 | -4.38 | – | 10.3 | 6.53 | -8.66 | – | 11.6
CCOC(=O)c1cc(C#N)c(N2CCC(C(=O)NS(=O)(=O)Cc3ccccc3)CC2)nc1C | – | -8.38 | 4.87 | 4.45 | 5.11 | -7.37 | 33.7 | 29.5 | -1.62 | -8.79 | 18.3 | 15

— ChEMBL document CHEMBL5442219
